Results: US11214803B2, “Modulators of YAP1 expression” (Ionis Pharmaceuticals, Inc., priority 2019, dated 2022)
Marks after values point to notes of the source that are not given here. Strand notation (5' to 3'): a small letter for the sugar, then the base; units joined by * are phosphorothioate-linked, units joined directly phosphodiester-linked; [ ] holds rarer units or linkages, { } end groups; capitals alone tell only the bases. k = constrained ethyl (cEt); [5mC] = 5-methylcytosine; d = 2'-deoxy (DNA)

Tests used:
[1] = test system: SNU449 xenograft tumor; experiment: Tumor volume in SNU449 xenograft tumor model, alone and in combination with sorafenib (second Example 30); assay type: in vivo, human; details: SNU449 xenograft, oligonucleotide 50 mg/kg, sorafenib 30 mg/kg orally
Experimental: Modified oligonucleotides described in the studies above were tested in a hepatocellular carcinoma SNU449 xenograft tumor model. […] A control oligonucleotide 792169, described herein above, was also tested.
Five million SNU449 cells in 30% matrigel were implanted subcutaneously into the fatpads of female NOD.Cg-Prkdcscid II2rgtmlWjl/SzJ mice (from Jackson Laboratory) at 4-6 weeks of age. 43 days post implantation (when tumors had reached approximately 100 mm^3 in size), groups of eight mice each were administered with 50 mg/kg modified oligonucleotide daily for 10 days (loading dose), following which they were administered with 50 mg/kg modified oligonucleotide four times a week for one week, following which they were dosed with 50 mg/kg modified oligonucleotide thrice weekly until the end of the study. […] Animals were sacrificed, and tumors were collected on day 119 post implantation.
Tumor volumes were also measured at the indicated days in the table below.

[2] = test system: ERK1/2; experiment: Measurement of ERK activation (pERK/ERK) in SNU449 xenograft model with sorafenib (second Example 30); assay type: in vivo, human; details: SNU449 xenograft tumors, pERK/ERK relative to PBS control, oligonucleotide 50 mg/kg, sorafenib 30 mg/kg orally
Experimental: Five million SNU449 cells in 30% matrigel were implanted subcutaneously into the fatpads of female NOD.Cg-Prkdcscid II2rgtmlWjl/SzJ mice (from Jackson Laboratory) at 4-6 weeks of age. 43 days post implantation (when tumors had reached approximately 100 mm^3 in size), groups of eight mice each were administered with 50 mg/kg modified oligonucleotide daily for 10 days (loading dose), following which they were administered with 50 mg/kg modified oligonucleotide four times a week for one week, following which they were dosed with 50 mg/kg modified oligonucleotide thrice weekly until the end of the study.
Protein analysis was carried out using standard procedures. […] ERK protein levels were compared to internal control GAPDH. […] The secondary antibody used was donkey anti-rabbit NA934, GE Healthcare. pERK/ERK levels were calculated relative to PBS control to determine % activation of ERK1/2.

[3] = Tolerability in Sprague-Dawley rats, body and organ weights (Example 21); assay type: in vivo; details: male Sprague-Dawley rats, 50 mg/kg s.c. weekly for 6 weeks (7 doses); for Kidney weight / Liver weight / Spleen weight: end of study; for body weight: terminal, prior to necropsy
Experimental: Terminal body weight was measured prior to necropsy. Ionis oligonucleotides that caused any changes in organ weights outside the expected range for modified oligonucleotides were excluded from further studies.

[4] = Tolerability in Sprague-Dawley rats, plasma chemistry markers (Example 21); assay type: in vivo; details: male Sprague-Dawley rats, 50 mg/kg s.c. weekly for 6 weeks (7 doses), 48 hours after last dose
Experimental: Sprague-Dawley rats are a multipurpose model used for safety and efficacy evaluations. The rats were treated with Ionis modified oligonucleotides from the studies described in the Examples above and evaluated for changes in the levels of various plasma chemistry markers.

[5] = test system: Yap1 mRNA; experiment: Antisense inhibition of human Yap1 in A-431 cells by cEt gapmers, single dose (Example 2, RTS4814); assay type: cell-based
In short: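 Free uptake, 2,000 nM, ~48 h, A-431 at 5,000 cells/well. Readout: RT-qPCR (RTS4814), RIBOGREEN-normalized, % UTC. 16-mer 3-10-3 cEt gapmers, full PS backbone, all C as 5-methylcytosine.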

[6] = day 101 post tumor implantation
[7] = day 105 post tumor implantation
[8] = day 108 post tumor implantation
[9] = day 119 post tumor implantation

Row | Substance | Average Tumor Volume ([1]; day 43 post tumor implantation) | Average Tumor Volume ([1]; day 46 post tumor implantation) | Average Tumor Volume ([1]; day 50 post tumor implantation) | Average Tumor Volume ([1]; day 53 post tumor implantation) | Average Tumor Volume ([1]; day 57 post tumor implantation) | Average Tumor Volume ([1]; day 60 post tumor implantation) | Average Tumor Volume ([1]; day 64 post tumor implantation) | Average Tumor Volume ([1]; day 67 post tumor implantation) | Average Tumor Volume ([1]; day 71 post tumor implantation) | Average Tumor Volume ([1]; day 75 post tumor implantation) | Average Tumor Volume ([1]; day 78 post tumor implantation) | Average Tumor Volume ([1]; day 81 post tumor implantation) | Average Tumor Volume ([1]; day 85 post tumor implantation) | Average Tumor Volume ([1]; day 88 post tumor implantation) | Average Tumor Volume ([1]; day 92 post tumor implantation) | Average Tumor Volume ([1]; day 94 post tumor implantation) | Average Tumor Volume ([1]; day 98 post tumor implantation) | Average Tumor Volume [1, 6] | Average Tumor Volume [1, 7] | Average Tumor Volume [1, 8] | other results
1 | CGCCGATAAGGTACAC (cEt gapmer, phosphorothioate backbone, further chemistry not given here) [ION 792169, reference compound] | 111 mm^3 | 162 mm^3 | 180 mm^3 | 247 mm^3 | 280 mm^3 | 317 mm^3 | 397 mm^3 | 466 mm^3 | 519 mm^3 | 559 mm^3 | 634 mm^3 | 681 mm^3 | 785 mm^3 | 889 mm^3 | 1170 mm^3 | 1215 mm^3 | 1355 mm^3 | 1417 mm^3 | 1509 mm^3 | 1571 mm^3 | Average Tumor Volume [1, 9]: 1697* mm^3; % activation of ERK1/2 [2]: 100%
2 | 1198439 (AGTGTATGTCAGAAGA; sugar, 5-methylcytosine, phosphorothioate modifications, further chemistry not given here) [compound 1198439] |  |  |  |  |  |  |  |  |  |  |  |  |  |  |  |  |  |  |  |  | Kidney weight [3]: 3.68* g; Liver weight [3]: 17* g; Spleen weight [3]: 2.28* g; body weight [3]: 319* g; ALT [4]: 54* U/L; AST [4]: 94* U/L; BUN [4]: 22* mg/dL; TBIL [4]: 0.15* mg/dL
3 | 958499 (kA*kT*kT*dA*dG*dA*dG*dT*dA*dT*dG*dT*dG*kG*k[5mC]*kA) [Compound 958499] |  |  |  |  |  |  |  |  |  |  |  |  |  |  |  |  |  |  |  |  | YAP1 (% UTC) ([5]; Table 18, A-431 cells, 5,000 cells per well, free uptake, 2,000 nM modified oligonucleotide, approx. 48 hours, RTS4814, normalized to RIBOGREEN, Yap1 mRNA as percent of untreated control): 1 % UTC; YAP1 (% UTC) ([5]; Table 19, A-431 cells, 5,000 cells per well, free uptake, 2,000 nM modified oligonucleotide, approx. 48 hours, RTS4814, normalized to RIBOGREEN, Yap1 mRNA as percent of untreated control): 2 % UTC; YAP1 (% UTC) ([5]; Table 20, Yap1 mRNA, percent of untreated control, 3-10-3 cEt gapmers targeting SEQ ID NO.: 1 and 2): 1 % UTC; YAP1 (% UTC) ([5]; Table 21, Yap1 mRNA, percent of untreated control, 3-10-3 cEt gapmers targeting SEQ ID NO.: 1 and 2): 1 % UTC; YAP1 (% UTC) ([5]; Table 22, Yap1 mRNA as percent of untreated control, 3-10-3 cEt gapmers, single dose): 1 % UTC; YAP1 (% UTC) ([5]; Table 23, Yap1 mRNA as percent of untreated control, 3-10-3 cEt gapmers, single dose): 2 % UTC; YAP1 (% UTC) ([5]; Table 24, Yap1 mRNA as percent of untreated control, 3-10-3 cEt gapmers targeting SEQ ID NO.: 1, and 2): 2 % UTC; YAP1 (% UTC) ([5]; Table 25, Yap1 mRNA as percent of untreated control, 3-10-3 cEt gapmers targeting SEQ ID NO.: 1, and 2): 1 % UTC
4 | 958499 (ATTAGAGTATGTGGCA; 3-10-3 cEt gapmer, further chemistry not given here) [compound 958499] |  |  |  |  |  |  |  |  |  |  |  |  |  |  |  |  |  |  |  |  | YAP1 (% UTC) ([5]; Table 32, Yap1 mRNA, percent of untreated control, 3-10-3 cEt gapmers targeting SEQ ID NO.: 1, and 2): 2 % UTC; YAP1 (% UTC) ([5]; Table 33, Yap1 mRNA, percent of untreated control, 3-10-3 cEt gapmers targeting SEQ ID NO.: 1, and 2): 4 % UTC; YAP1 (% UTC) ([5]; Yap1 mRNA as percent of untreated control, A-431 cells, 3-10-3 cEt gapmers targeting SEQ ID NO.: 1, and 2, Table 30): 1 % UTC; YAP1 (% UTC) ([5]; Yap1 mRNA as percent of untreated control, A-431 cells, 3-10-3 cEt gapmers targeting SEQ ID NO.: 1, and 2, Table 31): 1 % UTC
5 | 1198440 (AAGTGTATGTCAGAAG; cEt, 2'-MOE, 5-methylcytosine, phosphorothioate modifications, further chemistry not given here) [compound 1198440] | 111 mm^3 | 152 mm^3 | 168 mm^3 | 201 mm^3 | 242 mm^3 | 263 mm^3 | 338 mm^3 | 376 mm^3 | 373 mm^3 | 401 mm^3 | 429 mm^3 | 514 mm^3 | 606 mm^3 | 613 mm^3 | 690 mm^3 | 773 mm^3 | 804 mm^3 | 818 mm^3 | 894 mm^3 | 921 mm^3 | Average Tumor Volume [1, 9]: 978 mm^3; % activation of ERK1/2 [2]: 88%; Kidney weight [3]: 3.29 g; Liver weight [3]: 18 g; Spleen weight [3]: 2.78 g; body weight [3]: 373 g; ALT [4]: 58** U/L; AST [4]: 108** U/L; BUN [4]: 20** mg/dL; TBIL [4]: 0.17** mg/dL
